Source: the CheMixHub drug solubility set

Assay: xn = mol fraction of the nth substance listed, in the solute-free solvent

Cc1nc2n(c(=O)c1CCN1CCC(c3noc4cc(F)ccc34)CC1)CCCC2 + CC(C)=O + O
solubility (g/100 g solution)
Conditions | 278.15 K | 283.15 K | 288.15 K | 293.15 K | 298.15 K | 303.15 K | 308.15 K | 313.15 K
x2 = 0.1175 | 0.369 | 0.399 | 0.453 | 0.525 | 0.623 | 0.702 | 0.817 | 0.918
x2 = 0.1714 | 0.727 | 0.805 | 0.935 | 1.11 | 1.27 | 1.53 | 1.7 | 2.03
x2 = 0.2368 | 1.54 | 1.75 | 2.02 | 2.34 | 2.73 | 3.22 | 3.75 | 4.38
x2 = 0.3171 | 2.54 | 2.93 | 3.36 | 3.95 | 4.61 | 5.44 | 6.41 | 7.62
x2 = 0.42 | 3.38 | 3.87 | 4.49 | 5.26 | 6.16 | 7.21 | 8.51 | 10.1
x2 = 0.5538 | 3.5 | 4.03 | 4.71 | 5.51 | 6.46 | 7.65 | 9.06 | 10.7
x2 = 0.7366 | 2.51 | 2.92 | 3.5 | 4.08 | 4.75 | 5.67 | 6.67 | 7.88

C#CC1(O)C=CC2C3CCC4=CC(=O)CCC4C3CCC21CC (centres undefined) + CO + O
solubility (g/100 g solution)
Conditions | x2 = 0.05881 | x2 = 0.1233 | x2 = 0.1942 | x2 = 0.2727 | x2 = 0.3599 | x2 = 0.4576 | x2 = 0.5675 | x2 = 0.6923 | x2 = 0.835
283.15 K | 0.314 | 0.312 | 0.374 | 0.434 | 0.812 | 1.22 | 1.5 | 3.21 | 3.44
293.15 K | 0.435 | 0.437 | 0.512 | 0.594 | 1.2 | 1.81 | 2.45 | 4.24 | 5.12
298.15 K | 0.503 | 0.51 | 0.598 | 0.692 | 1.49 | 2.18 | 3.09 | 4.83 | 6.09
303.15 K | 0.578 | 0.592 | 0.696 | 0.804 | 1.8 | 2.59 | 3.85 | 5.45 | 7.24
308.15 K | 0.66 | 0.687 | 0.811 | 0.932 | 2.16 | 3.06 | 4.78 | 6.1 | 8.54
313.15 K | 0.746 | 0.791 | 0.943 | 1.08 | 2.55 | 3.6 | 5.87 | 6.79 | 9.97
318.15 K | 0.838 | 0.905 | 1.09 | 1.25 | 2.97 | 4.2 | 7.12 | 7.51 | 11.7
323.15 K | 0.934 | 1.03 | 1.27 | 1.44 | 3.41 | 4.87 | 8.61 | 8.26 | 13.5

CC1CCC2C(C)C(OC(=O)CCC(=O)O)OC3OC4(C)CCC1C32OO4 (centres undefined) + CC(C)O + O
solubility (g/100 g solution)
Conditions | 278.15 K | 283.15 K | 288.15 K | 293.15 K | 298.15 K | 303.15 K | 308.15 K | 313.15 K | 318.15 K
x2 = 0.03232 | 0.0811 | 0.106 | 0.134 | 0.171 | 0.208 | 0.263 | 0.325 | 0.397 | 0.486
x2 = 0.06978 | 0.226 | 0.289 | 0.358 | 0.447 | 0.536 | 0.663 | 0.804 | 0.965 | 1.16
x2 = 0.114 | 0.47 | 0.591 | 0.72 | 0.884 | 1.05 | 1.27 | 1.52 | 1.8 | 2.13
x2 = 0.1666 | 0.786 | 0.985 | 1.18 | 1.43 | 1.68 | 2.02 | 2.37 | 2.77 | 3.23
x2 = 0.2309 | 1.12 | 1.38 | 1.65 | 1.97 | 2.31 | 2.72 | 3.18 | 3.68 | 4.25
x2 = 0.3106 | 1.41 | 1.7 | 2.02 | 2.43 | 2.8 | 3.3 | 3.83 | 4.42 | 5.04
x2 = 0.4116 | 1.62 | 1.95 | 2.3 | 2.75 | 3.15 | 3.69 | 4.24 | 4.87 | 5.54
x2 = 0.5455 | 1.77 | 2.13 | 2.49 | 2.94 | 3.37 | 3.92 | 4.5 | 5.12 | 5.8
x2 = 0.7299 | 1.84 | 2.17 | 2.53 | 3 | 3.42 | 3.96 | 4.53 | 5.15 | 5.78

FC(F)(F)c1cccnc1Cl + CCOC(C)=O + CCCCO
solubility (g/100 g solution)
Conditions | 263.15 K | 268.15 K | 273.15 K | 278.15 K | 283.15 K | 288.15 K | 293.15 K | 298.15 K | 303.15 K
x2 = 0.2518 | 27.4 | 32.6 | 37.9 | 43.8 | 50.9 | 57.7 | 64.8 | 71.6 | 77.6
x2 = 0.4023 | 33.5 | 38.3 | 42.5 | 49.6 | 54.8 | 61.4 | 68 | 74.3 | 80.5
x2 = 0.5999 | 37.2 | 42.5 | 47.4 | 53.5 | 60.2 | 66.6 | 72.6 | 78.8 | 84.3
x2 = 0.7998 | 42.4 | 47.7 | 52.6 | 59 | 64.3 | 70.8 | 76.8 | 82.4 | 87.4

Nc1nc2ccc(OC(F)(F)F)cc2s1 + CCCO + O
solubility (g/100 g solution)
Conditions | 278.15 K | 283.15 K | 288.15 K | 293.15 K | 298.15 K | 303.15 K | 308.15 K | 313.15 K | 318.15 K | 323.15 K
x2 = 0.1138 | 11.3 | 12.7 | 13.8 | 14.7 | 15.4 | 16.1 | 16.7 | 17.1 | 17.7 | 18.2
x2 = 0.1666 | 19.6 | 21.1 | 22.3 | 23.1 | 24 | 24.9 | 25.7 | 26.4 | 27.5 | 28.6
x2 = 0.2306 | 33.4 | 34.7 | 35.8 | 37.2 | 38.1 | 39.2 | 40.1 | 40.9 | 41.9 | 42.8
x2 = 0.3103 | 39.9 | 40.9 | 42.4 | 43.4 | 45 | 46.2 | 47.9 | 49.2 | 50.6 | 52.4
x2 = 0.4116 | 53.3 | 56.1 | 58.5 | 60.7 | 63 | 64.6 | 66.3 | 67.6 | 68.7 | 69.7
x2 = 0.5454 | 54.6 | 56.3 | 57.9 | 59.9 | 61.7 | 63.6 | 65.3 | 66.6 | 67.9 | 68.7
x2 = 0.7292 | 48.8 | 50.6 | 52.6 | 54.6 | 56.6 | 58.2 | 60.2 | 61.6 | 63.1 | 64

CCOc1ccccc1C(N)=O + CC(C)O + CC#N
293.15 K
Conditions | solubility (g/100 g solution)
x2 = 0.1 | 3.74
x2 = 0.2 | 4.36
x2 = 0.3 | 4.92
x2 = 0.4 | 5.26
x2 = 0.5 | 5.44
x2 = 0.6 | 5.14
x2 = 0.7 | 4.81
x2 = 0.8 | 4.2
x2 = 0.9 | 3.48

CC(S)C(=O)NCC(=O)O (centres undefined) + CCCCO + CC#N
solubility (g/100 g solution)
Conditions | 273.15 K | 278.15 K | 283.15 K | 288.15 K | 293.15 K | 298.15 K | 303.15 K | 308.15 K | 313.15 K | 318.15 K
x2 = 0.1216 | 3.87 | 4.43 | 4.99 | 5.57 | 6.21 | 6.84 | 7.49 | 8.19 | 8.94 | 9.75
x2 = 0.2697 | 4.29 | 4.96 | 5.69 | 6.46 | 7.28 | 8.08 | 8.92 | 9.79 | 10.7 | 11.9
x2 = 0.4538 | 4.43 | 4.94 | 5.58 | 6.3 | 7.26 | 8.29 | 9.41 | 10.6 | 11.8 | 13
x2 = 0.689 | 4.42 | 5.29 | 6.26 | 7.32 | 8.38 | 9.51 | 10.7 | 12 | 13.3 | 14.7
